These results are taken from ChEMBL document CHEMBL1132052, “Solid-phase synthesis of benzisothiazolones as serine protease inhibitors” (Bioorg Med Chem Lett, 1999).

What is called IC50 is the concentration that gives 50% inhibition. A higher IC50 goes with weaker potency.

The structures appear in SMILES notation.

The target in this assay is Tryptase (Homo sapiens, UniProt Q9BZJ3+Q15661+Q9NRR2). Briefly: Compound was tested for inhibition of human mast cell tryptase. The class given is protein assay.

`COc1ccc(CNC(=O)CCCC(=O)OCN2C(=O)c3ccccc3S2(=O)=O)cc1` yielded a half-maximal inhibitory concentration (IC50) of 0.43 µM.
In the case of `O=C(CCCC(=O)OCN1C(=O)c2ccccc2S1(=O)=O)NCc1ccc(Cl)c(Cl)c1` it was 0.23 µM.
